Test results from patent EP4579344A1, “THIOALKYLCOUMARIN PHOTOSENSITIZERS FOR PHOTOPOLYMERIZATION” (IGM Group B.V., priority 2023, dated 2025).

Legend:
[1] = Maximum absorption peak wavelength; assay type: physicochemical; details: spectroscopic grade acetonitrile; maximum between 300 nm and 450 nm
Procedure: Maximum absorption peak wavelength: Absorption spectra have been recorded using an AnalytikJena S600 spectrophotometer. On a microbalance, the photosensitizer was weighted with a 10^-6 g precision in a DSC crucible. The crucible and its content was transferred in volumetric flask, then filled with spectroscopic grade acetonitrile. The reference was taken for the empty spectrometer, and two series of spectra were recorded for each solution, in a 1 cm path and in a 1 mm path cells. The spectra of the solvent was taken separately in both cell and then subtracted to solutions spectra. The absorption maxima value is taken where the absorption spectra reaches its maximum in the region between (300 nm and 450 nm)

[2] = Fluorescence emission peak wavelength; assay type: physicochemical; details: dilute solution (A ~0.1) in acetonitrile; excitation at absorption maximum
Procedure: Fluorescence emission peak wavelength: Fluorescence spectra of the photosensitizers were recorded using a Horiba Jobin Yvon Fluoromax4 spectrofluorometer. The measurement for each photosensitizer was taken in a dilute solution (A ~0.1) of spectroscopic grade acetonitrile, using 1 cm path cell. The excitation wavelength was set at the maximum of absorption of the photosensitizer.

Row | λ^abs max [1] [nm] | λ^fluo max [2] [nm] | Compound
1 | 323 | 406 | CCSc1ccc2ccc(=O)oc2c1 [S9]
2 | 347 | 439 | CCSc1ccc(-c2cc3ccc(SCC)cc3oc2=O)cc1 [S3]
3 | 335 | 424 | Cc1c(-c2ccccc2)c(=O)oc2cc(SCCO)ccc12 [S6]
4 | 351 | 435 | CN(C)CCSc1ccc2cc(-c3ccccc3)c(=O)oc2c1 [S4]
5 | 330 | 396 | Cc1cc(=O)oc2cc(SCCO)ccc12 [S5]
6 | 362 | 476 | CSc1ccc2cc(-c3nc4ccccc4n3C)c(=O)oc2c1 [S7]
7 | 352 | 411 | CCCCC(CC)CSc1ccc2cc(-c3ccccc3)c(=O)oc2c1 (stereo not drawn) [S2]
8 | 345 | 440 | CCSc1ccc2cc(-c3ccccc3)c(=O)oc2c1 [S1]

Row | Compound | λ^abs max [1] [nm] | λ^fluo max [2] [nm]
9 | CCN(CC)c1ccc2c(C)cc(=O)oc2c1 [S8, 7-diethylamino-4-methylcoumarin, reference compound] | 370 | 434
